A short description of series [1]: N-methylserotonin degradation test in bacterial monocultures. To be noted: 5 ng/ml added to monocultures of the 14 strains, 72-hour period. How it is done: Experiments to determine whether N-methylserotonin is synthesized de novo by B. ovatus were carried out in 10 mL TYG with or without supplementation with tryptophan, tryptamine, serotonin, dimethylserotonin, trimethylserotonin, methyltryptamine, or S-adenosyl methionine (final concentrations; 5 mg/mL; all from Sigma). Experiments seeking to test the capacity of all 14 bacterial strains introduced into mice to degrade N-methylserotonin in vitro were carried out using 10 mL TYG and 50 ng N-methylserotonin, with samples collected every 24 hours. Assays were performed in triplicate for each condition, using the protocol described herein.
Several other experiments were performed to characterize in vitro N-methylserotonin liberation by members of the 14 strain consortia.

Series [2] in a line: Tissue metabolites (liver glycogen and precursors, colonic glutamate) in germ-free mice given N-methylserotonin. The format is in vivo, germ-free C57BL/6J mice. Here is the method: (§1) For experiments involving administration of N-methylserotonin to germ-free mice, a stock solution of the compound (100 mg/mL, Santa Cruz Biotechnologies) was prepared in sterile water and filter sterilized ([…]; Nalgene). The outer surface of tubes containing the stock solution was sterilized with Clidox (Pharmacal) and the tubes were introduced into gnotobiotic isolators using standard procedures. The stock solution was then diluted in darkened glass water bottles (Ancare) in order to administer doses of 1 mg/kg/day or 50 mg/kg/day (based on an experimentally determined average consumption of 5 mL of water/day/mouse). Every four days, bottles were replaced with new ones containing fresh N-methylserotonin. Each of the three arms of the experiment, including the control arm where unsupplemented drinking water was administered, consisted of 5 mice.
(§2) Fecal samples and body weights were collected weekly, while food and water intake were monitored daily by comparing pellet mass in the food hopper and the volume of water in water bottles at the beginning and end of a 24 h period and dividing these values by the number of mice per cage. All animals were euthanized between 0830 h and 0930 h without prior fasting. Luminal contents from the proximal and distal halves of the small intestine, the cecum and the colon, host tissues (liver, epididymal fat pads, gastrocnemius muscle, the distal quarter of the small intestine (ileum), cecum and entire colon) plus serum were collected, flash frozen in liquid nitrogen and stored at −80° C. prior to analyses.
Other metabolites—Tissue (at least 10 mg) was placed in a reinforced 2 mL tube. A 20 times weight volume of extraction solvent was added (40% acetonitrile, 40% methanol, 20% water) and the tissue was disrupted as described herein. Samples were centrifuged at 12,000×g for 10 minutes at 4° C. A 200 μL aliquot of the resulting supernatant was transferred to a 2 mL glass tube and dried in a speed vacuum at room temperature (25° C.) for two hours. The dry extract was reconstituted in 100 μL of 90% water/10% acetonitrile and stored at −4° C. prior to injection; 5 μL was injected into a 1290 Infmity II UHPLC system coupled to a 6470 Triple Quadrupole LC/MS system equipped with a Jet Stream electrospray ionization source (Agilent Technologies). Chromatographic separation was performed on an Agilent ZORBAX Extend C18, […], 1.8 μm column, using the following gradient conditions: mobile phase A, 10 mM tributylamine and 15 mM acetic acid in 3% methanol (v/v); mobile phase B, 10 mM tributylamine and 15 mM acetic acid in 100% methanol; 0% solvent B (0-2 minutes); 0-20% solvent B (2-7.5 minutes); 20-45% solvent B (7.5-13 minutes); 45-99% solvent B (13-20 minutes); 99-0% solvent B (20-22 minutes) at a flow rate of 0.25 mL/minute. […] Transitions were taken from the Agilent Metabolomics dMRM Database.
Glutamate is known to […] Arntl when directly applied to tissue slices. Knockout of the Per3 homolog Per2 reduces expression of the glutamate transporter (Eaatl, Slc1A3) and uptake of glutamate in the brain. These observations raise the possibility that one way that N-methylserotonin might influence colonic circadian regulators is through its effects on glutamate levels in this tissue.

The target in the next series is 5-Htr7 (Homo sapiens, UniProt P34969). To be noted: in vitro studies; cited from earlier work.
In a further series the target is T1, 5-HT2A receptor (Rattus norvegicus, UniProt P14842).
T1 construct: increase glucose uptake in cultured rat muscle via its agonist activity on the 5-HT2A receptor; host or cells: cultured rat muscle
As to conditions: cultured rat muscle, agonist activity on the 5-HT2A receptor; cited from earlier work.

The nature of series [3]: N-methylserotonin in drinking water of germ-free mice: body weight, epididymal fat, intake, survival. In kind it is in vivo, germ-free C57BL/6J mice. To be noted: for epididymal fat mass: vs untreated controls. Here is the method:
as §1, §2
Host effects of N-methylserotonin. To characterize the effects of N-methylserotonin on host physiology and metabolism, 12-week-old germ-free C57BL/6J mice were fed the unsupplemented HiSF-LoFV diet and administered N-methylserotonin via their drinking water at doses of 1 mg/kg/day or 50 mg/kg/day for 21 days (FIG. 2A). The 1 mg/kg/day dose was experimentally determined to result in fecal N-methylserotonin levels that were equivalent to those documented in mice colonized with the 14-member community consuming the orange fiber-supplemented HiSF-LoFV diet (133.5±15 ng/g versus 131±19 ng/g feces, respectively; p=0.92, unpaired t-test). The 50 mg/kg/d dose was equivalent to the estimated total amount of N-methylserotonin consumed each day in the 10% orange fiber-containing diet (based on the yield obtained after in vitro enzymatic digestion of the fiber with T. reesei cellulase).

T1 sequence (P14842 whole entry): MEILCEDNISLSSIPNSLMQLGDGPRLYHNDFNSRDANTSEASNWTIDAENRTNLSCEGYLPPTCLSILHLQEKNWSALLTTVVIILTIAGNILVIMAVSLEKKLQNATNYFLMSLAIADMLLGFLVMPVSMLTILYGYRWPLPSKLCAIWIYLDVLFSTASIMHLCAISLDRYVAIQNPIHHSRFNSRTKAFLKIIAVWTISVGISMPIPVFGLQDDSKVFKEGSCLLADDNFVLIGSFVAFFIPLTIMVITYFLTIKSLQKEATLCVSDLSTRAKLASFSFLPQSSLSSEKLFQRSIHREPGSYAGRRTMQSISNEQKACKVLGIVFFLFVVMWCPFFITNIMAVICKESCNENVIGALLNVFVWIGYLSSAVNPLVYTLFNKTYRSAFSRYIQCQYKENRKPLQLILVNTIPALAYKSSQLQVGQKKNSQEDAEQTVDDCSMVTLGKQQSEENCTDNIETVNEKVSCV
5-Htr7, sequence (P34969 whole entry): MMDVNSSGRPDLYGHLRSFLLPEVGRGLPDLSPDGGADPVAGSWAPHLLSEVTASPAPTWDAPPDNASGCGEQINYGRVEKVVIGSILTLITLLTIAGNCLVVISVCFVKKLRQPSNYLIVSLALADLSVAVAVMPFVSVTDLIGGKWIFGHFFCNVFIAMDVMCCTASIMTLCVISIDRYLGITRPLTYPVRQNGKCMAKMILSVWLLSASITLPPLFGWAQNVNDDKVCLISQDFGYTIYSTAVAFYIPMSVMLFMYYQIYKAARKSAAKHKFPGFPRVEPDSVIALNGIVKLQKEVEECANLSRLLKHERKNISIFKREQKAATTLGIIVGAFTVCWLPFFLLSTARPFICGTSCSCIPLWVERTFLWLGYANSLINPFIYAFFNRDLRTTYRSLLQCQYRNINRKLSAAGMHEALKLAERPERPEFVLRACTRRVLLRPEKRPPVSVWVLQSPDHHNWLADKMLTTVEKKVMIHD

For `CNCCc1c[nH]c2ccc(O)cc12` [N-methylserotonin], the “input N-methylserotonin remaining intact/unmodified” value in series [1] was determined as 97±2%. Moreover, in series [2] (1 mg/kg/day), the “liver glucose-6-phosphate” value is on record as “the lower dose did not”, the liver glycogen result is “the lower dose did not”, the liver uridine entry is reported as “the lower dose did not” and the liver uridine monophosphate result is reported as “the lower dose did not”. For the same compound, in series [2] (50 mg/kg/day), the “liver glucose-6-phosphate” value is “statistically significant decrease”, the liver glycogen result is on record as “statistically significant increases”, the liver uridine result was “statistically significant decreases” and the liver uridine monophosphate entry was “statistically significant decreases”. For the same compound, in series [2] (50 mg/kg/day, untreated controls 11±0.9), the “glutamate levels in colonic tissue” value was determined as 21±1.4 ng/mg tissue. Besides, on 5-Htr7, the binding entry is given as “binds”. The glucose uptake entry at 5-HT2A receptor is recorded as “able to increase glucose uptake”. Moreover, the epididymal fat mass entry in series [3] (1 mg/kg/day (lower dose)) was “not the lower dose”. The epididymal fat mass entry in series [3] (50 mg/kg/day (higher dose)) is “statistically significant reduction”. For the same compound, in series [3] (50 mg/kg/day group, 5 mice), the mortality result is listed as “one animal died within the first week”. Moreover, the weight gain entry in series [3] (drinking water, 21 days, vs untreated) was “statistically significant decrease in weight gain”. Moreover, in series [3] (measured daily, all three groups), the “food and water intake” value was “remained consistent”.

Values taken from patent US20250345370A1, “MICROBIAL LIBERATION OF N-METHYLSEROTONIN FROM ORANGE FIBER” (Washington University, priority 2022, published 2025).
